Columns and labels:
A549 = experiment: Cytotoxicity against human A549 cells assessed as cell growth inhibition measured after 24 hrs by MTT assay; type: functional, cell-based; conditions: A549, 24 h
HeLa = experiment: Cytotoxicity against human HeLa cells assessed as cell growth inhibition measured after 24 hrs by MTT assay; type: functional, cell-based
DU-145 [1] = experiment: Cytotoxicity against human DU145 cells assessed as cell growth inhibition measured after 24 hrs by MTT assay; type: functional, cell-based; conditions: DU-145, 24 h
COLO 205 = experiment: Cytotoxicity against human COLO205 cells assessed as cell growth inhibition measured after 24 hrs by MTT assay; type: functional, cell-based; conditions: COLO 205, 24 h
SK-OV-3 = experiment: Cytotoxicity against human SKOV3 cells assessed as cell growth inhibition measured after 24 hrs by MTT assay; type: functional, cell-based; conditions: SK-OV-3, 24 h
DU-145 [2] = experiment: Cell cycle arrest in human DU145 cells assessed as accumulation at G0/G1 phase at 5.2 uM measured after 24 hrs by RNase A/propidium iodide staining based flow cytometry analysis (reference value: 51.75 %); type: functional
DU-145 [3] = experiment: Induction of apoptosis in human DU145 cells assessed as live cells at 5.2 uM measured after 24 hrs by Annexin-V/FITC and propidium iodide staining based flow cytometry (reference value: 95.62 %); type: functional
DU-145 [4] = experiment: Induction of apoptosis in human DU145 cells assessed as early apoptotic cells at 5.2 uM measured after 24 hrs by Annexin-V/FITC and propidium iodide staining based flow cytometry (reference value: 0.25 %); type: functional
DU-145 [5] = experiment: Induction of apoptosis in human DU145 cells assessed as late apoptotic cells at 5.2 uM measured after 24 hrs by Annexin-V/FITC and propidium iodide staining based flow cytometry (reference value: 1.49 %); type: functional
DU-145 [6] = experiment: Induction of apoptosis in human DU145 cells assessed as necrotic cells at 5.2 uM measured after 24 hrs by Annexin-V/FITC and propidium iodide staining based flow cytometry (reference value: 2.64 %); type: functional
DU-145 [7] = experiment: Induction of apoptosis in human DU145 cells assessed as live cells at 8 uM measured after 24 hrs by Annexin-V/FITC and propidium iodide staining based flow cytometry (reference value: 95.62 %); type: functional
DU-145 [8] = experiment: Induction of apoptosis in human DU145 cells assessed as early apoptotic cells at 8 uM measured after 24 hrs by Annexin-V/FITC and propidium iodide staining based flow cytometry (reference value: 0.25 %); type: functional
DU-145 [9] = experiment: Induction of apoptosis in human DU145 cells assessed as late apoptotic cells at 8 uM measured after 24 hrs by Annexin-V/FITC and propidium iodide staining based flow cytometry (reference value: 1.49 %); type: functional
DU-145 [10] = experiment: Induction of apoptosis in human DU145 cells assessed as necrotic cells at 8 uM measured after 24 hrs by Annexin-V/FITC and propidium iodide staining based flow cytometry (reference value: 2.64 %); type: functional

## C/C=C(\C)C(=O)O[C@@H]1[C@]2(OC(=O)CCCC)C=C3C4=CC(=O)O[C@@H](c5ccoc5)[C@]4(C)CC[C@@H]3[C@@]3(C)[C@H](C[C@]1(C)[C@H]3[C@@H](O)C(=O)OC)O2
A549
  IC50: 9.4 µM
HeLa
  IC50: > 100 µM
DU-145 [1]
  IC50: 5.2 µM
COLO 205
  IC50: 4 µM
SK-OV-3
  IC50: 13.7 µM
DU-145 [2]
  Activity: 42.93%
DU-145 [3]
  Activity: 83.45%
DU-145 [4]
  Activity: 1.74%
DU-145 [5]
  Activity: 10.35%
DU-145 [6]
  Activity: 4.46%
DU-145 [7]
  Activity: 85.39%
DU-145 [8]
  Activity: 1.39%
DU-145 [9]
  Activity: 8.11%
DU-145 [10]
  Activity: 5.11%
